From US5274141A, “Designed quinone- and hydroquinone-containing cyclic enediyneols and enediyneones having DNA cleaving and cytotoxic properties” (The Scripps Research Institute, priority 1992, dated 1993)
Where two headings read alike, the source gives them in different places.

How the values were obtained:
[1] = tested on: Normal Human Dermal Fibroblast (NHDF); assay: Sulforhodamine B cytotoxicity assay, NHDF; type: cell-based; conditions: for toxicity to NHDF cells compared: compared with well known anticancer drugs
Description: (§1) In addition to the DNA cleavage screening already discussed, several of the before-described compounds were screened against a panel of twelve cancerous cell lines as target cells and four "normal" cell preparations. This screening utilized a sulforhodamine B cytotoxicity assay as discussed below.
(§2) SULFORHODAMINE B CYTOTOXICITY ASSAY
(§3) 1. Preparation of target cells in 96-well plates
(§4) 2. Preparation of sample drugs and toxic control
(§5) 3. Addition of Sample Drugs, Compounds and Controls to 96-well Plates
(§6) f. Incubate (37° C., 5-10 percent CO2 in humidified incubator) plates for a total of 72 hours. Check plates at 24 hour intervals microscopically for signs of cytotoxicity.
(§7) IC50 values; i.e., the concentration of Compound required to kill one-half of the treated cells, where then calculated.
(§8) The cell lines assayed are listed below along with their respective sources:
(§9) Separate control studies were also carried out using the following well known anticancer drugs with the following IC50 values for NHDF and cancer cells.

[2] = tested on: Human Mammary Epithelial Cells (HMEC); assay: Sulforhodamine B cytotoxicity assay, HMEC; type: cell-based; conditions: normal, 72 hours
Description: as §1, §2, §3, §4, §5, §6, §7
(§10) The cell lines assayed are listed below along with their respective sources: […]

[3] = tested on: Normal Human Epidermal Keratinocytes (NHEK); assay: Sulforhodamine B cytotoxicity assay, NHEK; type: cell-based; conditions: 72 hours
Description: as §1, §2, §3, §4, §5, §6, §7, §10

[4] = tested on: Chinese Hamster Ovary (CHO); assay: Sulforhodamine B cytotoxicity assay, CHO; type: cell-based; conditions: Cricetulus griseus, normal, 72 hours
Description: as §1, §2, §3, §4, §5, §6, §7, §10

[5] = tested on: SK-Mel-28 (Melanoma); assay: Sulforhodamine B cytotoxicity assay, SK-Mel-28; type: cell-based; conditions: Homo sapiens, 72 hours
Description: as §1, §2, §3, §4, §5, §6, §7, §10

[6] = tested on: Capan-1 (Pancreatic Carcinoma); assay: Sulforhodamine B cytotoxicity assay, Capan-1; type: cell-based; conditions: Homo sapiens, 72 hours
Description: as §1, §2, §3, §4, §5, §6, §7, §10

[7] = tested on: H-322 (Lung Carcinoma); assay: Sulforhodamine B cytotoxicity assay, H-322; type: cell-based; conditions: Homo sapiens, NCI-H322, 72 hours
Description: as §1, §2, §3, §4, §5, §6, §7, §10

[8] = tested on: UCLA P-3 (Lung Carcinoma); assay: Sulforhodamine B cytotoxicity assay, UCLA P-3; type: cell-based; conditions: Homo sapiens, 72 hours
Description: as §1, §2, §3, §4, §5, §6, §7, §10

[9] = tested on: MCF-7 (Breast Carcinoma); assay: Sulforhodamine B cytotoxicity assay, MCF-7; type: cell-based; conditions: Homo sapiens, MCF7, 72 hours
Description: as §1, §2, §3, §4, §5, §6, §7, §10

[10] = tested on: Ovcar-3 (Ovarian Carcinoma); assay: Sulforhodamine B cytotoxicity assay, Ovcar-3; type: cell-based; conditions: Homo sapiens, 72 hours
Description: as §1, §2, §3, §4, §5, §6, §7, §10

[11] = tested on: HT-29 (Colon Carcinoma); assay: Sulforhodamine B cytotoxicity assay, HT-29; type: cell-based; conditions: Homo sapiens, 72 hours
Description: as §1, §2, §3, §4, §5, §6, §7, §10

[12] = tested on: HL-60 (Promyeocytic Leukemia); assay: Sulforhodamine B cytotoxicity assay, HL-60; type: cell-based; conditions: Homo sapiens, 72 hours
Description: as §1, §2, §3, §4, §5, §6, §7, §10

[13] = tested on: Molt-4 (T-Cell Leukemia); assay: Sulforhodamine B cytotoxicity assay, Molt-4; type: cell-based; conditions: Homo sapiens
Description: as §1, §2, §3, §4, §5, §6, §7, §10

[14] = tested on: P-388 (Mouse Leukemia); assay: Sulforhodamine B cytotoxicity assay, P-388; type: cell-based; conditions: P388, 72 hours
Description: as §1, §2, §3, §4, §5, §6, §7, §10

[15] = tested on: φX174 form I DNA; assay: Cleavage of cell-free supercoiled DNA, agarose gel electrophoresis; type: biochemical; conditions: pH 7.4, 37° C., 15 hours
Procedure: FIG. 1 is a photograph of an ethidium bromide stained 1 percent agarose electrophoresis gel o that illustrates the cleavage of .phi.X174 form I DNA (100 μM base pairs) by Compounds 7, 8, 9, 10 and 12 at 50-5000 μM after 15 hours at 37° C. at a pH value of 7.4 in 50 […]. […] Lanes 2-10 correspond to the following: Lane 2: Compound 12 (100 μM); Lane 3: Compound 10 (100 μM); Lane 4: Compound 7 (100 μM); Lane 5: Compound 8 (100 μM); Lanes 6-10: Compound 9 (50, 100, 500, 1000 and 5000 μM). Forms I, II and III shown to the left of the photograph show the relative migrations of supercoiled (form I) relaxed (form II) and linear (form III) DNA, respectively.
To a vial containing 9 microliters of a cell-free .phi.X174 Type I double-stranded DNA in pH 7.4 […] Tris-HCl buffer was added 1 microliter of a 1.0 millimolar or other appropriate ethanol solution of Compounds 7, 8, 9, 10 and 12.
The vials were then placed in a 37° C. oven for 15 hours. A 2.0 microliter portion of glycerol loading buffer solution containing bromothymol blue indicator was added to each vial. A 10 microliter aliquot was then drawn from each. Gel electrophoresis analysis of the aliquots was performed using a 1.0 percent agarose gel with ethidium bromide run at 115 volts for one hour. DNA cleavage was indicated by the formation of Type II DNA, which was detected by visual inspection of the gel under 310 nanometer ultraviolet light.

[16] = Cycloaromatization studies using 1,4-cyclohexadiene in toluene; type: physicochemical
Description: These reactions provided Compounds 11-13 as shown schematically in Scheme 2, below. [drawing 9]

[17] = Stability observed during synthesis; type: physicochemical
Procedure: Finally, PCC oxidation (4.0 equivalents PCC, 4Å molecular sieves in CH2 Cl2 at 25° C. for 0.5 hour) of Compound 8 afforded the tricarbonyl Compound 10 in 49 percent yield as step i.

[18] = tested on: SIHA (Cervical Carcinoma); assay: Sulforhodamine B cytotoxicity assay, SIHA; type: cell-based; conditions: Homo sapiens, 72 hours
Description: as §1, §2, §3, §4, §5, §6, §7, §10

[19] = tested on: 786-0 (Renal Carcinoma); assay: Sulforhodamine B cytotoxicity assay, 786-0; type: cell-based; conditions: Homo sapiens, 72 hours
Description: as §1, §2, §3, §4, §5, §6, §7, §10

[20] = tested on: Cancer Cells; assay: cells; type: cell-based, human or mouse
Description: as §1, §2, §3, §4, §5, §6, §7, §8, §9

[21] = control anticancer drugs, read-out: Range of Average IC50 Values, NHDF
[22] = Homo sapiens, normal, 72 hours, read-out: IC50 Values
[23] = MOLT-4, 72 hours, read-out: IC50 Values
[24] = 110° C., 1,4-cyclohexadiene in toluene
[25] = Molt-4 leukemia cells, read-out: IC50
[26] = 55° C., 1,4-cyclohexadiene in toluene
[27] = Homo sapiens, control anticancer drugs, read-out: Range of Average IC50 Values, NHDF

Molecule | IC50 [1, 22] [µM] | IC50 [2] [µM] | IC50 [3] [µM] | IC50 [4] [µM] | IC50 [5] [µM] | IC50 [6] [µM] | IC50 [7] [µM] | IC50 [8] [µM] | IC50 [9] [µM] | IC50 [10] [µM] | IC50 [11] [µM] | IC50 [12] [µM] | IC50 [13, 23] [nM] | DNA cleaving activity [15] | also measured
N.N.[Cl][Pt][Cl] [Cis-Platin, reference compound] | – | – | – | – | – | – | – | – | – | – | – | – | – | – | IC50 [1, 21]: 50 µM
Cc1c(C)c(OC(=O)C(C)(C)C)c2c(c1OC(=O)C(C)(C)C)C#CCCCC(O)C#C2 (centres unmarked) [Compound 7] | 100 | 100 | 25 | 100 | 100 | 13 | 100 | 13 | 50 | 13 | 13 | 100 | 100000 | no DNA cleaving activity | IC50 [14]: 13 µM; half life (t1/2) of cycloaromatization [16, 24]: 74 h; stability ([17]; ambient temperature): quite stable
CC1=C(C)C(=O)C2=C(C#CCCCC(O)C#C2)C1=O (centres unmarked) [Compound 8] | 3.1 | 3.1 | 3.1 | 3.2 | 6.3 | 3.1 | 13 | 6.3 | 6.3 | 6.3 | 6.3 | 7.8 | 100 | significant DNA damaging properties | toxicity to NHDF cells compared [1]: similarly toxic to the normal NHDF and cancer cells except Molt-4 cells; IC50 [13, 25]: 500 nM; IC50 [14]: 2 µM; half life (t1/2) of cycloaromatization [16, 26]: 2.6 h; thermal stability [17]: thermally labile
Cc1c(C)c(O)c2c(c1O)C#CCCCC(O)C#C2 (centres unmarked) [Compound 9] | 25 | 25 | 13 | 13 | 25 | 13 | 25 | 25 | 25 | 25 | 25 | 1.6 | 50000 | significant DNA damaging properties | IC50 [14]: 3.1 µM; cycloaromatization behaviour [16, 24]: complicated kinetics due to ease of conversion to Compound 8 even under oxygen extrusion conditions, but seems quite stable prior to oxidation; air sensitivity [17]: air-sensitive; stability ([17]; neutral conditions): relatively stable
CC1=C(C)C(=O)C2=C(C#CCCCC(=O)C#C2)C1=O [Compound 10] | 100 | 100 | 100 | 100 | 100 | 100 | 100 | 50 | 13 | 25 | 50 | 25 | 1190 | significant DNA damaging properties | toxicity to NHDF cells compared [1]: less toxic than those well known anticancer drugs against the NHDF cells; IC50 [18]: 13 µM; IC50 [19]: 50 µM; IC50 [13, 25]: 1000 nM; potency in cytotoxicity studies ([20]; variety of cell lines, in words): most impressive results; half life (t1/2) of cycloaromatization [16, 26]: 0.533 h; reactivity in cycloaromatization studies ([16]; series 7-10): most reactive member of the series 7-10
CC1=C(C)C(=O)c2cc3c(cc2C1=O)CCCC3O (centres unmarked) [Compound 12] | – | – | – | – | – | – | – | – | – | – | – | – | – | minor activity | –
COc1cccc2c1C(=O)c1c(O)c3c(c(O)c1C2=O)C[C@@](O)(C(=O)CO)C[C@@H]3O[C@H]1C[C@H](N)[C@H](O)[C@H](C)O1 [Doxorubicin, reference compound] | – | – | – | – | – | – | – | – | – | – | – | – | – | – | IC50 ([20]; control anticancer drugs, cancer cells, read-out: Range of Average IC50 Values, Cancer Cells): 0.16 to 98 nM
COC1=C(C(=O)O)[C@H](C)[C@@]23O[C@]24c2cc(O)c5c(c2N[C@H]3C#C/C=C\C#C[C@H]14)C(=O)c1c(O)ccc(O)c1C5=O [Dynemicin A, reference compound] | – | – | – | – | – | – | – | – | – | – | – | – | – | – | IC50 [1, 21]: 0.01 µM
N[C@@H](Cc1ccc(N(CCCl)CCCl)cc1)C(=O)O [Melphelan, reference compound] | – | – | – | – | – | – | – | – | – | – | – | – | – | – | IC50 ([1]; Homo sapiens, read-out: Range of Average IC50 Values, NHDF): 100 µM
CN(Cc1cnc2nc(N)nc(N)c2n1)c1ccc(C(=O)N[C@@H](CCC(=O)O)C(=O)O)cc1 [Methotrexate, reference compound] | – | – | – | – | – | – | – | – | – | – | – | – | – | – | IC50 [1, 27]: 50 µM
CC(=O)O[C@H]1C(=O)[C@@]2(C)[C@H]([C@H](OC(=O)c3ccccc3)[C@]3(O)C[C@H](OC(=O)[C@H](O)[C@@H](NC(=O)c4ccccc4)c4ccccc4)C(C)=C1C3(C)C)[C@]1(OC(C)=O)CO[C@@H]1C[C@@H]2O [Taxol, reference compound] | – | – | – | – | – | – | – | – | – | – | – | – | – | – | IC50 [1, 27]: 0.01 µM
Calicheamicin [reference compound] | – | – | – | – | – | – | – | – | – | – | – | – | – | – | IC50 [1, 21]: 0.0025 µM
